Data reported in patent US10660877B2 (BRISTOL-MYERS SQUIBB COMPANY, priority 2016, dated 2020).

Legend:
human TLR7 = human TLR7 (Homo sapiens (Human), UniProt Q9NYK1); experiment: TLR7 inhibition reporter assay (HEK-Blue cells, SEAP reporter, gardiquimod stimulation); assay type: cell-based; details: HEK-Blue cells overexpressing human TLR7, gardiquimod 7.5 μM
human TLR8 = human TLR8 (Homo sapiens (Human), UniProt Q9NR97); experiment: TLR8 inhibition reporter assay (HEK-Blue cells, SEAP reporter, R848 stimulation); details: read-out: TLR8 IC50, HEK-Blue cells overexpressing human TLR8, R848 15.9 μM;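 note: compounds tested from 0.05 nM to 50 µM, 22 h at 37 °C, SEAP measured with HEK-Blue Detection, inhibition relative to agonist plus DMSO versus a known inhibitor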
human TLR9 = human TLR9 (Homo sapiens (Human), UniProt Q9NR96); experiment: TLR9 inhibition reporter assay (HEK-Blue cells, SEAP reporter, ODN2006 stimulation); details: read-out: TLR9 IC50, HEK-Blue cells overexpressing human TLR9, ODN2006 5 nM;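 note: compounds tested over 0.05 nM to 50 µM, 22 h incubation, inhibition taken as SEAP signal drop from agonist plus DMSO wells toward a known inhibitor control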
Sequence of human TLR9 (Q9NR96 26-1032): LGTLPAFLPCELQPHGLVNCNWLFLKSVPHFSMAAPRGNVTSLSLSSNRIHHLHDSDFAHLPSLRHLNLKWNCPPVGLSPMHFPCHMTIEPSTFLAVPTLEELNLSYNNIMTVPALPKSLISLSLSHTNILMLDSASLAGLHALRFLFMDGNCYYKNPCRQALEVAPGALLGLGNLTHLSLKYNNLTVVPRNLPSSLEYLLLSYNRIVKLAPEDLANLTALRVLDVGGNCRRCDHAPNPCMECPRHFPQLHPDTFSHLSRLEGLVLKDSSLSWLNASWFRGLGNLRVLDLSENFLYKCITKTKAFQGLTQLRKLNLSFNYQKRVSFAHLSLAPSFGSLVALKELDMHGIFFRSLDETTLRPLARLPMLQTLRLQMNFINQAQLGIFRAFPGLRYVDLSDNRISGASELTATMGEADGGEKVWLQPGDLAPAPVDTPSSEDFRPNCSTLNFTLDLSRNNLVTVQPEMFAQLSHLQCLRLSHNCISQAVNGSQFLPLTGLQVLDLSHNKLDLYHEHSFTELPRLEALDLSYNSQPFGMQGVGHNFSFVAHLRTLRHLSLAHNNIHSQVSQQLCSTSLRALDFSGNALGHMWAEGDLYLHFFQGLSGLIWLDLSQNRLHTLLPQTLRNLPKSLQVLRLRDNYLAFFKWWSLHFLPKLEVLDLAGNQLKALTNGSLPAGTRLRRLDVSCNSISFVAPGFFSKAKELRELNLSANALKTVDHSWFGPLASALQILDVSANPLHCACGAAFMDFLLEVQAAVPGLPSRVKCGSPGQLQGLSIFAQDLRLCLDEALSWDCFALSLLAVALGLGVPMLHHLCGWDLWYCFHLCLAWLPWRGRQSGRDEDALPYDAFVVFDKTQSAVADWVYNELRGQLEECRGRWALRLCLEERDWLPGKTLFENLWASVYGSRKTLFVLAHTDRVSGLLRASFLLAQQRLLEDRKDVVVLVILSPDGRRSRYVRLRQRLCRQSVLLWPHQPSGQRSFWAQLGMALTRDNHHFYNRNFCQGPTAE

Sequence of human TLR8 (Q9NR97 27-1041): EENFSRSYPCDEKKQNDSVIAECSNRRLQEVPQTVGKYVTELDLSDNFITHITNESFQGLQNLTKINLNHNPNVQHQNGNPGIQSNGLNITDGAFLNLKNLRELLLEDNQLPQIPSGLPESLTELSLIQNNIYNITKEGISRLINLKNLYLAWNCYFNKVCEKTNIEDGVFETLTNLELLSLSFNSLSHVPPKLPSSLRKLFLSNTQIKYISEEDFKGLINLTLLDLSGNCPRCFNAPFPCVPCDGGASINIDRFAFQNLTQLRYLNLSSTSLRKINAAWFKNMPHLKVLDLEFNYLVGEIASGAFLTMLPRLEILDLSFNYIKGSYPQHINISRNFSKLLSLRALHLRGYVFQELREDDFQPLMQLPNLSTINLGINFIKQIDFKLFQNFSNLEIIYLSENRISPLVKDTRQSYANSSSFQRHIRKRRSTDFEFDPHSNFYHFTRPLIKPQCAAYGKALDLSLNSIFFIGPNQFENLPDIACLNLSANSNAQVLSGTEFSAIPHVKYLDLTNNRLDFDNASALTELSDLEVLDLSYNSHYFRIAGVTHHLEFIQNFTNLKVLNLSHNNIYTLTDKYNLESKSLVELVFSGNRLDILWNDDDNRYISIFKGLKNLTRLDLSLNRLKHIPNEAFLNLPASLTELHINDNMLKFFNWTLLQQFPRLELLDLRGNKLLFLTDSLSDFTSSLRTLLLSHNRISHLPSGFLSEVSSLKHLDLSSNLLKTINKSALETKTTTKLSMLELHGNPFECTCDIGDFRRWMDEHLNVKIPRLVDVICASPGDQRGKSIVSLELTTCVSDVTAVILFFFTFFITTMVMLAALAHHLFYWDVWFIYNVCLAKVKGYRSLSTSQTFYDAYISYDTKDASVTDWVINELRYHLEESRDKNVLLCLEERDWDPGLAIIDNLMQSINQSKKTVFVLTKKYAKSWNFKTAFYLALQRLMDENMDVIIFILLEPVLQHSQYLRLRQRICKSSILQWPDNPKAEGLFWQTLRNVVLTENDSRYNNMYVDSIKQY
Sequence of human TLR7 (Q9NYK1 27-1049): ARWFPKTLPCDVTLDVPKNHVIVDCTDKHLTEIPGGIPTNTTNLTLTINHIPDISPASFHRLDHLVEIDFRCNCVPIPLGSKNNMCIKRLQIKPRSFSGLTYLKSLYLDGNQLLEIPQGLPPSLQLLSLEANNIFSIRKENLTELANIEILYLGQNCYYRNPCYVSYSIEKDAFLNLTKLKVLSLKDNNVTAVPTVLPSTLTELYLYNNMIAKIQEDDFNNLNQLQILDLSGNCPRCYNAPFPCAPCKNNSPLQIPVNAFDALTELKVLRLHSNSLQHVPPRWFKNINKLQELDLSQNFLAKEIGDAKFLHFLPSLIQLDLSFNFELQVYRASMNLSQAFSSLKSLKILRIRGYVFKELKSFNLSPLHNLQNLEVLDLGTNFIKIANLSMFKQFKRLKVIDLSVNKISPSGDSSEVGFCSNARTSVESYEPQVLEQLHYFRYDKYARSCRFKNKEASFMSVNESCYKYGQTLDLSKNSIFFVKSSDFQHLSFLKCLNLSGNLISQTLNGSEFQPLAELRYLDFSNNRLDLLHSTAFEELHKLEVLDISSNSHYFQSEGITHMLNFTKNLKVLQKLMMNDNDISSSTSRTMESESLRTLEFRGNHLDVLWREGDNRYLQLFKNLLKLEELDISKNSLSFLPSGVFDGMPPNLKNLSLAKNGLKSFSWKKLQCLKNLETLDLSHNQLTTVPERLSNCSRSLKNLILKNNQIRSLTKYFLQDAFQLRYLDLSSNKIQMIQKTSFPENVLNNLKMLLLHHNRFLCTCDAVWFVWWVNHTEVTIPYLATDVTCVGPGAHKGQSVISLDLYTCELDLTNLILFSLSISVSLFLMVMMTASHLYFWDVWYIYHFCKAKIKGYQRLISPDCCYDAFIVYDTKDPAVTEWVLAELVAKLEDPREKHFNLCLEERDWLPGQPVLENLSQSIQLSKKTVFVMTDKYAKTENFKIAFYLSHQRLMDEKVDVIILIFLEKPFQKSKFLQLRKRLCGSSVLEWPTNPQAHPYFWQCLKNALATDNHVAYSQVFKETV

Row | SMILES | IC50 (human TLR7) [nM] | IC50 (human TLR8) [nM] | IC50 (human TLR9) [nM]
1 | Cc1cc(-c2[nH]c3ccc(C4CCN(C(=O)CC5CC(=O)NC(=O)N5)CC4)cc3c2C(C)C)cc(C)n1 (stereo not drawn) [Example 129, 6-(2-(4-(2-(2,6-dimethylpyridin-4-yl)-3-isopropyl-1H-indol-5-yl)piperidin-1-yl)-2-oxoethyl)dihydropyrimidine-2,4(1H,3H)-dione] | 18.1 | 69.8 | 32300
2 | Cc1cc(-c2[nH]c3ccc(C4CCN(C5CCOC(C)(C)C5)CC4)cc3c2C(C)C)ccn1 (stereo not drawn) [Example 719, 5-(1-(2,2-dimethyltetrahydro-2H-pyran-4-yl)piperidin-4-yl)-3-isopropyl-2-(2-methylpyridin-4-yl)-1H-indole] | 23.9 | 5.2 | 638
3 | Cc1cc(-c2[nH]c3ccc(C4CCN(C(=O)C(C)C)CC4)cc3c2C(C)C)ccn1 [Example 602, 1-(4-(3-isopropyl-2-(2-methylpyridin-4-yl)-1H-indol-5-yl)piperidin-1-yl)-2-methylpropan-1-one] | 24.7 | 158 | 32000
4 | Cc1cc(-c2[nH]c3ccc(C4CCN(C(=O)CN5CCCCC5)CC4)cc3c2C(C)C)cc(C)n1 [Example 351, 1-(4-(2-(2,6-dimethylpyridin-4-yl)-3-isopropyl-1H-indol-5-yl)piperidin-1-yl)-2-(piperidin-1-yl)ethan-1-one] | 3.1 | 7.3 | 559
5 | CCc1c(-c2ccnc(C)c2)[nH]c2ccc(C3CCN(CCCN(C)C)CC3)cc12 [Example 673, 3-(4-(3-ethyl-2-(2-methylpyridin-4-yl)-1H-indol-5-yl)piperidin-1-yl)-N,N-dimethylpropan-1-amine] | 70.5 | 23.1 | 287
6 | CNC(=O)CN1CCC(c2ccc3[nH]c(-c4cc(C)nc(C)c4F)c(C(C)C)c3c2)CC1 [Example 655, 2-(4-(2-(3-fluoro-2,6-dimethylpyridin-4-yl)-3-isopropyl-1H-indol-5-yl)piperidin-1-yl)-N-methylacetamide] | 1.3 | 4.2 | 1750
7 | Cc1cc(-c2[nH]c3ccc(C4CCN(CC5CCNC5)CC4)cc3c2C(C)C)cc(C)n1 (stereo not drawn) [Example 466, 2-(2,6-dimethylpyridin-4-yl)-3-isopropyl-5-(1-(pyrrolidin-3-ylmethyl)piperidin-4-yl)-1H-indole] | 6.5 | 3.7 | 273
8 | CC(C)c1c(-c2ccncc2)[nH]c2ccc(C3CCN(C(=O)CN(C)C)CC3)cc12 [Example 524, 2-(dimethylamino)-1-(4-(3-isopropyl-2-(pyridin-4-yl)-1H-indol-5-yl)piperidin-1-yl) ethan-1-one] | 33.6 | 29.2 | 2800
9 | Cc1cc(-c2[nH]c3ccc(C4CCN(CCC(N)=O)CC4)cc3c2C(C)C)cc(C)n1 [Example 314, 3-(4-(2-(2,6-dimethylpyridin-4-yl)-3-isopropyl-1H-indol-5-yl)piperidin-1-yl)propanamide] | 1.4 | 3.2 | 147
10 | Cc1cc(-c2[nH]c3ccc(C4CCN(CC5CCN(C)CC5)CC4)cc3c2C(C)C)ccn1 [Example 743, 3-isopropyl-5-(1-((1-methylpiperidin-4-yl)methyl)piperidin-4-yl)-2-(2-methylpyridin-4-yl)-1H-indole] | 6.5 | 5.1 | 282
11 | Cc1cc(-c2[nH]c3ccc(C4CCN(CC(F)(F)F)CC4)cc3c2C(C)C)cc(C)n1 [Example 310, 2-(2,6-dimethylpyridin-4-yl)-3-isopropyl-5-(1-(2,2,2-trifluoroethyl)piperidin-4-yl)-1H-indole] | 230 | 895 | 29900
12 | CCCCN(CCO)CC(=O)N1CCC(c2ccc3[nH]c(-c4cc(C)nc(C)c4)c(C(C)C)c3c2)CC1 [Example 414, 2-(butyl(2-hydroxyethyl)amino)-1-(4-(2-(2,6-dimethylpyridin-4-yl)-3-isopropyl-1H-indol-5-yl)piperidin-1-yl)ethan-1-one] | 2.4 | 16.8 | 924
13 | CCN(CC)CCCN1CCC(c2ccc3[nH]c(-c4cc(C)nc(C)c4)c(C(C)C)c3c2)CC1 [Example 671, 3-(4-(2-(2,6-dimethylpyridin-4-yl)-3-isopropyl-1H-indol-5-yl)piperidin-1-yl)-N,N-diethylpropan-1-amine] | 0.6 | 2.6 | 76
14 | Cc1cc(-c2[nH]c3ccc(C4CCN(C(=O)C5CC5(F)F)CC4)cc3c2C(C)C)cc(C)n1 (stereo not drawn) [Example 108, (2,2-difluorocyclopropyl)(4-(2-(2,6-dimethylpyridin-4-yl)-3-isopropyl-1H-indol-5-yl)piperidin-1-yl)methanone] | 7.4 | 103 | 33100
15 | Cc1cc(-c2[nH]c3ccc(C4CCN(CC(=O)NC5(C)CC5)CC4)cc3c2C(C)C)cc(C)n1 [Example 251, 2-(4-(2-(2,6-dimethylpyridin-4-yl)-3-isopropyl-1H-indol-5-yl)piperidin-1-yl)-N-(1-methylcyclopropyl)acetamide] | 4.3 | 9 | 817
16 | CCc1c(-c2ccnc(OC)c2)[nH]c2ccc(C3CCN(C4CCN(CC5CC5)CC4)CC3)cc12 [Example 789, 5-(1′-(cyclopropylmethyl)-[1,4′-bipiperidin]-4-yl)-3-ethyl-2-(2-methoxypyridin-4-yl)-1H-indole] | 599 | 269 | 408
17 | Cc1cc(-c2[nH]c3ccc(C4CCN(C(=O)CNCC(C)(C)O)CC4)cc3c2C(C)C)cc(C)n1 [Example 375, 1-(4-(2-(2,6-dimethylpyridin-4-yl)-3-isopropyl-1H-indol-5-yl)piperidin-1-yl)-2-((2-hydroxy-2-methylpropyl)amino)ethan-1-one] | 13.1 | 80.6 | 1780
18 | CCN(CC)CC(=O)N1CCC(c2ccc3[nH]c(-c4cc(C)nc(C)c4)c(C(C)C)c3c2)CC1 [Example 99, 2-(diethylamino)-1-(4-(2-(2,6-dimethylpyridin-4-yl)-3-isopropyl-1H-indol-5-yl)piperidin-1-yl)ethan-1-one] | 3.1 | 13 | 497
19 | COc1c(-c2[nH]c3ccc(C4CCNCC4)cc3c2C(C)C)cc[n+]([O-])c1C [Example 57] | 489 | 281 | 1770
20 | Cc1cc(-c2[nH]c3ccc(C4CCN(C(=O)CN(C)C5CCOC5)CC4)cc3c2C(C)C)cc(C)n1 (stereo not drawn) [Example 413, 1-(4-(2-(2,6-dimethylpyridin-4-yl)-3-isopropyl-1H-indol-5-yl)piperidin-1-yl)-2-(methyl(tetrahydrofuran-3-yl)amino)ethan-1-one] | 9.6 | 91.8 | 2500
21 | Cc1cc(-c2[nH]c3ccc(C4CCN(CC(=O)NCCC(C)O)CC4)cc3c2C(C)C)cc(C)n1 (stereo not drawn) [Example 262, 2-(4-(2-(2,6-dimethylpyridin-4-yl)-3-isopropyl-1H-indol-5-yl)piperidin-1-yl)-N-(3-hydroxybutyl)acetamide] | 2 | 6 | 715
22 | CNCC(=O)N1CCC(c2ccc3[nH]c(-c4cc(C5CC5)ncc4F)c(C(C)C)c3c2)CC1 [Example 518, 1-(4-(2-(2-cyclopropyl-5-fluoropyridin-4-yl)-3-isopropyl-1H-indol-5-yl)piperidin-1-yl)-2-(methylamino)ethan-1-one] | 15.1 | 257 | 1610
